Results: patent US9078871B2, “Estrogen receptor modulators and uses thereof” (SERAGON PHARMACEUTICALS, INC., priority 2010, dated 2015)

What was measured:
Format in all cases: cell-based
[1] = target: T1, ER-α (Homo sapiens, UniProt P03372); assay: ER-α in Cell Western Assay (SP1); settings: MCF-7 cells, SP1 rabbit monoclonal Ab, 4 or 24 hr post compound addition, read-out: ER In-Cell Western Assay (SP1); for Emax: MCF7, Max Response; for DC50: IC50
T1 construct: endogenous in cells; host or cells: MCF-7
T1 sequence (P03372 1-595): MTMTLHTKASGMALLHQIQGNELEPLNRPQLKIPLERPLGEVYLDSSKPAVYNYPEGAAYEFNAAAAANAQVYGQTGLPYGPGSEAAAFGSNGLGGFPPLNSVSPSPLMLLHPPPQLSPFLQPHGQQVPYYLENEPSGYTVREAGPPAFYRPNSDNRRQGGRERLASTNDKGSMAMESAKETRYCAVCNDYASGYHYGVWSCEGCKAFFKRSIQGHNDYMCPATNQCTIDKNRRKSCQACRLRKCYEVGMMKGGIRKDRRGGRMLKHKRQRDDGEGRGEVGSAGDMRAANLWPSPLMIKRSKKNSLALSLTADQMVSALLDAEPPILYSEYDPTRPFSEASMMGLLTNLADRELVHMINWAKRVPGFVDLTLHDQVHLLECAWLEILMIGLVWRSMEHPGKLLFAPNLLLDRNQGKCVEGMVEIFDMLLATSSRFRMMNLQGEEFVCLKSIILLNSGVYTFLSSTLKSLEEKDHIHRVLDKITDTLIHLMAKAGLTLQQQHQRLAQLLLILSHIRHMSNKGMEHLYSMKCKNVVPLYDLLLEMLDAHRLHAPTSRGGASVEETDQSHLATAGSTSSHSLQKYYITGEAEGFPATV
Procedure: (§1) MCF-7 cells were adjusted to a concentration of 200,000 cells per mL in RPMI containing 10% charcoal-stripped FBS and 20 mM HEPES. 16 microliters of the cell suspension (3200 cells) was added to each well of a poly-D-lysine 384 well plate, and the cells were incubated overnight to allow the cells to adhere. The following day an eleven point, serial semilog dilution of each compound was added to the cells in 16 μL at a final concentration ranging from 0.3-0.000003 μM. At 4 or 24 hr post compound addition, the cells were fixed (10% formalin in PBS) for 20 minutes. Cells were permeabalized in PBS 0.1% Triton and blocked with LICOR blocking buffer (50 μl/well, 90′). The wells were then incubated overnight at 4° C. with SP1 rabbit monoclonal Ab (Thermo Scientific) diluted 1:1000 in LICOR blocking buffer/0.1% Tween-20. Wells which were treated with blocking buffer with Tween but no antibody were used as a background control. Wells were washed with 0.1% Tween-20/PBS and then incubated in goat anti-rabbit IRDye™ 800CW (LICOR Inc.; 1:1000) and DRAQ5 DNA dye (1:2000 for 2 mM stock) diluted in LICOR blocking buffer containing 0.1% Tween-20 and 0.01% SDS for 60 minutes. Cells were washed (50 μl/well, 5′ each) in 0.1% Tween-20/PBS. Plates were scanned on a LICOR Odyssey infrared imaging system. Integrated intensities in the 800 nm channel and 700 nm channel were measured to determine levels of ER and DNA respectively. Percent ER levels were determined as follows: (Integrated intensity 800 nm sample/integrated intensity 700 nm sample)/(Integrated intensity 800 nm untreated cells/integrated intensity 700 nm untreated cells)×100=% ER levels.

[2] = target: T1, ER-α; assay: ER-α In Cell Western Assay (ER1D5); settings: MCF-7 cells, ER1D5 antibody, 4 or 24 hr post compound addition, read-out: ER In-Cell Western Assay (ER1D5); for Emax: MCF7, Max Response; for DC50: IC50
Procedure: as §1, with “with ER1D5 (Santa Cruz Biotechnology)” for “with SP1 rabbit monoclonal Ab (Thermo Scientific)”, “diluted 1:100” for “diluted 1:1000”, “goat anti-mouse” for “goat anti-rabbit”

[3] = test system: MCF-7 cells; assay: Breast Cancer Cell Viability Assay (MCF7 Viability Assay); settings: 5 days' compound exposure, CellTiter-Glo; for IC50: Homo sapiens, MCF7, 120 h
Procedure: MCF-7 cells were adjusted to a concentration of 20,000 cells per mL in RPMI containing 10% FBS and 20 mM HEPES. 16 microliters of the cell suspension (320 cells) was added to each well of a 384 well plate, and the cells were incubated overnight to allow the cells to adhere. The following day an eleven point, serial semilog dilution of each compound was added to the cells in 16 μL at a final concentration ranging from 0.3-0.000003 μM. After 5 days' compound exposure, 16 μL of CellTiter-GLo (Promega, Madison Wis.) was added to the cells the relative luminescence units (RLUs) of each well was determined. CellTiter-Glo added to 32 μL of medium without cells was used to obtain a background value. The Percent viability of each sample was determined as follows: (RLU sample-RLU background/RLU untreated cells-RLU background)×100=% viability.

In the case of CC1=C(c2cccc(O)c2)C(c2ccc(OC[C@H](C)N3CC[C@@H](C)C3)cc2)Oc2ccc(O)cc21 (mixture of isomers) [Example 2, 3-(3-Hydroxyphenyl)-4-methyl-2-(4-((S)-2-((R)-3-methylpyrrolidin-1-yl)propoxy)phenyl)-2H-chromen-6-ol], the Emax [1] is reported as ≥ 85%, the DC50 [1] is reported as ≤ 1 nM and the Emax [2] is reported as ≥ 65%. For the same compound, the DC50 [2] was ≤ 1 nM, the “MCF7 Viability Assay Max Response” value [3] was “++ (++ = a single % value ≧50%)” and the IC50 [3] was ≤ 1 nM.
In the case of CC1=C(c2ccc(F)cc2)C(c2ccc(OC[C@H](C)N3CC[C@@H](C)C3)cc2)Oc2ccc(O)cc21 (mixture of isomers) [Example 30, 3-(4-Fluorophenyl)-4-methyl-2-(4-((S)-2-((R)-3-methylpyrrolidin-1-yl)propoxy)phenyl)-2H-chromen-6-ol], the Emax [1] is reported as 60 to 85%, the DC50 [1] is reported as ≤ 1 nM and the Emax [2] is reported as ≥ 65%. For the same compound, the DC50 [2] was ≤ 1 nM, the “MCF7 Viability Assay Max Response” value [3] was “++ (++ = a single % value ≧50%)” and the IC50 [3] was ≤ 1 nM.
With CC1=C(c2cccc(O)c2)[C@H](c2ccc(OC[C@H](C)N3CC[C@@H](C)C3)cc2)Oc2ccc(O)cc21 (single isomer, unassigned) [Example 2a] the Emax [1] was ≥ 85%, the DC50 [1] was ≤ 1 nM and the Emax [2] was ≥ 65%. For the same compound, the DC50 [2] was ≤ 1 nM, the “MCF7 Viability Assay Max Response” value [3] was “++ (++ = a single % value ≧50%)” and the IC50 [3] was ≤ 1 nM.
For CC1=C(c2cccc(O)c2)[C@@H](c2ccc(OC[C@H](C)N3CC[C@@H](C)C3)cc2)Oc2ccc(O)cc21 (single isomer, unassigned) [Example 2b], the Emax [1] was ≥ 85%, the DC50 [1] was > 1 nM and the Emax [2] was ≥ 65%. The DC50 [2] was > 1 nM, the “MCF7 Viability Assay Max Response” value [3] was “++ (++ = a single % value ≧50%)” and the IC50 [3] was > 1 nM.
In the case of CC1=C(c2cccc(O)c2)C(c2ccc(OC[C@H](C)N3CCCCC3)cc2)Oc2ccc(O)cc21 (stereo partly drawn) [Example 1, 3-(3-Hydroxyphenyl)-4-methyl-2-(4-((S)-2-(piperidin-1-yl)propoxy)phenyl)-2H-chromen-6-ol], the Emax [1] is reported as 60 to 85%, the DC50 [1] is reported as ≤ 1 nM and the Emax [2] is reported as 40 to 65%. For the same compound, the DC50 [2] was ≤ 1 nM, the “MCF7 Viability Assay Max Response” value [3] was “++ (++ = a single % value ≧50%)” and the IC50 [3] was ≤ 1 nM.
For CC1=C(c2cc(O)ccc2F)C(c2ccc(OC[C@H](C)N3CC[C@@H](C)C3)cc2)Oc2ccc(O)cc21 (stereo partly drawn) [Example 62, 3-(2-Fluoro-5-hydroxyphenyl)-4-methyl-2-(4-((S)-2-((R)-3-methylpyrrolidin-1-yl)propoxy)phenyl)-2H-chromen-6-ol], the Emax [1] was ≥ 85%, the DC50 [1] was ≤ 1 nM and the “MCF7 Viability Assay Max Response” value [3] was “++ (++ = a single % value ≧50%)”. The IC50 [3] was ≤ 1 nM.
In the case of CC1=C(c2ccc(F)cc2)C(c2ccc(OC[C@H](C)N3CCC[C@H]3C)cc2)Oc2ccc(O)cc21 (stereo partly drawn) [Example 63, 3-(4-Fluorophenyl)-4-methyl-2-(4-((S)-2-((R)-2-methylpyrrolidin-1-yl)propoxy)phenyl)-2H-chromen-6-ol], the Emax [1] is reported as 60 to 85%, the DC50 [1] is reported as ≤ 1 nM and the “MCF7 Viability Assay Max Response” value [3] is reported as “++ (++ = a single % value ≧50%)”. For the same compound, the IC50 [3] was ≤ 1 nM.
For CC1=C(c2cccc(O)c2)C(c2ccc(OC[C@H](C)N3CC[C@@H](F)C3)cc2)Oc2ccc(O)cc21 (stereo partly drawn) [Example 64, 2-(4-((S)-2-((R)-3-Fluoropyrrolidin-1-yl)propoxy)phenyl)-3-(3-hydroxyphenyl)-4-methyl-2H-chromen-6-ol], the Emax [1] was ≥ 85%, the DC50 [1] was ≤ 1 nM and the “MCF7 Viability Assay Max Response” value [3] was “++ (++ = a single % value ≧50%)”. For the same compound, the IC50 [3] was ≤ 1 nM.
CC1=C(c2cccc(O)c2)C(c2ccc(OC[C@H](C)N3C4CCC3CC4)cc2)Oc2ccc(O)cc21 (stereo partly drawn) [Example 67, 2-(4-((S)-2-(7-Azabicyclo[2.2.1]heptan-7-yl)propoxy)phenyl)-3-(3-hydroxyphenyl)-4-methyl-2H-chromen-6-ol] was tested, and the Emax [1] was < 60%, the DC50 [1] was ≤ 1 nM and the “MCF7 Viability Assay Max Response” value [3] was “++ (++ = a single % value ≧50%)”. For the same compound, the IC50 [3] was ≤ 1 nM.
CC1=C(c2ccc(C(F)(F)F)c(O)c2)C(c2ccc(OC[C@H](C)N3CC[C@@H](C)C3)cc2)Oc2ccc(O)cc21 (stereo partly drawn) [Example 68, 3-(3-Hydroxy-4-(trifluoromethyl)phenyl)-4-methyl-2-(4-((S)-2-((R)-3-methylpyrrolidin-1-yl)propoxy)phenyl)-2H-chromen-6-ol] was tested, and the Emax [1] was 60 to 85%, the DC50 [1] was > 1 nM and the “MCF7 Viability Assay Max Response” value [3] was “++ (++ = a single % value ≧50%)”. For the same compound, the IC50 [3] was > 1 nM.
In the case of CC1=C(c2ccc(O)c(C(F)(F)F)c2)C(c2ccc(OC[C@H](C)N3CC[C@@H](C)C3)cc2)Oc2ccc(O)cc21 (stereo partly drawn) [Example 69, 3-(4-Hydroxy-3-(trifluoromethyl)phenyl)-4-methyl-2-(4-((S)-2-((R)-3-methylpyrrolidin-1-yl)propoxy)phenyl)-2H-chromen-6-ol], the Emax [1] is reported as 60 to 85%, the DC50 [1] is reported as ≤ 1 nM and the “MCF7 Viability Assay Max Response” value [3] is reported as “++ (++ = a single % value ≧50%)”. For the same compound, the IC50 [3] was > 1 nM.
In the case of CC1=C(c2ccc(F)cc2)C(c2ccc(OC[C@H](C)N3CCOCC3)cc2)Oc2ccc(O)cc21 (stereo partly drawn) [Example 70, 3-(4-Fluorophenyl)-4-methyl-2-(4-((S)-2-morpholinopropoxy)phenyl)-2H-chromen-6-ol], the Emax [1] is reported as 60 to 85%, the DC50 [1] is reported as ≤ 1 nM and the “MCF7 Viability Assay Max Response” value [3] is reported as “++ (++ = a single % value ≧50%)”. The IC50 [3] was > 1 nM.
With CC1=C(c2ccc(F)cc2)C(c2ccc(OC[C@H](C)N3CC4CC4C3)cc2)Oc2ccc(O)cc21 (stereo partly drawn) [Example 71, 2-(4-((2S)-2-(3-Azabicyclo[3.1.0]hexan-3-yl)propoxy)phenyl)-3-(4-fluorophenyl)-4-methyl-2H-chromen-6-ol] the Emax [1] was 60 to 85%, the DC50 [1] was ≤ 1 nM and the “MCF7 Viability Assay Max Response” value [3] was “++ (++ = a single % value ≧50%)”. For the same compound, the IC50 [3] was > 1 nM.
